From patent US5434053A, “Detection of antibiotics” (Gist-Brocades N.V., priority 1992, dated 1995) come the findings set out here.

In test [1] the test system is antibiotic binding protein. Kind of test: Antibiotic residue test for β-lactams in milk (sequential assay; HRPO-labelled antibiotic binding protein, immobilized 7ACA-spacer-BSA). Details: species or system Bacillus stearothermophilus. To be noted: for reader units expressed in %: measured at 650 nanometer; for sensitivity ppb: test according to Example 1, other β-lactams. The procedure: A grown culture of an antibiotic sensitive microorganism in this example Bacillus stearothermophilus (continuous culture art. #108 Porton Products Ltd, UK) was lysed overnight at 4° C. with lysozyme, DNAse and triton X-100 in 0.1M phosphate pH 7.0. The lysate was centrifuged for 30 minutes at approximately 1600×g (4° C.). After centrifugation the supernatant was mixed with an antibiotic affinity gel matrix, for example to prepare a 7-aminocephalosporanic acid (7ACA) affinity gel matrix the following method was used.
The 7ACA-affigel and the supernatant of the lysed culture was mixed for 3 hours at 20° C. gently on a shaker. The gel was washed six times with 0.1M phosphate+1M NaCl pH 7.0. For each wash was used 500 ml.
In this example horse-radish peroxidase (HRPO) is used. 1 mg HRPO (suitable for labelling) in 1 ml of distilled water (d.i.-water) and 0.2 ml 0.1M Na-periodate was mixed 20 minutes at 20° C. and dialysed overnight at 4° C. against 0.001M Na-acetate pH 4.4. This dialysate was adjusted to pH 9.0-9.6 by adding 25 μl of 0.1M carbonate. Directly hereafter 1 mg abp (Pierce protein assay) was added into the dialysate. The mixture was gently shaken for 2 hours at room temperature. Thereafter 150 μl of 4 mg Na-borohydride/ml d.i.-water was added to the mixture, this was incubated for 2 hours at 4° C.
40 mg of 7ACA was added to 4 ml of 50 mM Hepes (pH 7.5) solution. After dissolving the pH was adjusted to pH 7.0 with 1N NaOH. Hereafter 20 mg BSA and 40 mg Bis(sulfosuccinicmidyl)suberate (spacer) and an extra 2 ml of 50 mM Hepes solution was added. The mixture was gently shaken for 45 minutes at 20° C.
0.125 ml dialysate (7ACA-spacer-BSA conjugate) was added to 500 ml carbonate pH 9.6. 0.5 ml of this solution was added to the polystyrene star tubes (NUNC MAXISORB®). Tubes were covered and incubated overnight at 4° C. After incubation the β-lactam spacer protein conjugate dilution was removed from the tubes and 2 ml 0.05M phosphate+0.5% BSA+2% sucrose+0.1M glycine pH 7.2 was added to each tube. After 1 hour at 20° C. the tubes were emptied and dried for 48 hours at 22°-27° C. with less than 30% humidity. Dried tubes are stable for at least 1 year at 4° C.
0.2 ml of milk sample and 0,2 ml of a diluted abp-enzyme conjugate was added to an empty reaction ampoule. After incubation for 2 minutes at 64° C. the contents of the tube was transferred to the coated tube. After the second incubation of 2 minutes at 64° C. the contents of the coated tube was dumped into the sink and the tubes were washed three times with 50×diluted wash solution by filling the tubes, dumping the contents into the sink and removing residuals by tapping on absorbent paper. After the wash, 0.5 ml of TM-blue® colour-substrate was added into the tube. This incubation for 4 minutes at room temperature was stopped by adding 0.5 ml of stop solution (1.5% NaF). The colour development at 650 nm was compared with an antibiotic standard tested along with the sample.

The test system of test [2] is anti-gentamycin-rabbit antibody. As to the kind of experiment: Antibiotic residue test for gentamycin in milk (sequential assay; antibody/HRPO-protein A conjugate, immobilized gentamycin-spacer-BSA). To be noted: for reader units expressed in %: measured at 650 nanometer. The test is classed as binding. The procedure:
The gentamycin assay is in general developed with the same basics as the β-lactam-assay. We will therefore give in this example the same outline as the β-lactam assay of Example 1 with description of differences.
A commercial anti-gentamycin-rabbit antibody is obtained from Biodesign International, Kennebunkport, Me., U.S.A. The anti-gentamycin-rabbit antiserum is absorbed to remove the bovine serum albumin (BSA) carrier antibodies. A solution containing 10 mg/ml sulfosuccinicmidylsuberate-BSA and 2 mg of unreacted BSA is mixed with the raw antiserum in the ratio of 10 to 1. This removes all detectable reactivity with BSA.
Absorbed anti-gentamycin antiserum is reacted with horseradish peroxidase labelled Staphylococcus aureus protein A to form an antibiotic binding protein enzyme conjugate. An optimal ratio of antibody to protein A is determined by forming the assay with checkerboard titrations of the two components diluted in phosphate buffered saline containing 1% BSA.
In this example gentamycin is used for conjugation to Bovine Serum Albumin (BSA). A spacer between gentamycin and the BSA is used to obtain the best affinity and specificity. The spacer is the same as used in Example 1.
As described in the β-lactam test, the gentamycin-spacer-protein conjugate is coated to a solid phase.
The same test method as described in Example 1 for the β-lactam test can be used for the gentamycin test. However, this test uses all incubations at a temperature of 20° C.

Consider `CC1(C)S[C@@H]2[C@H](NC(=O)Cc3ccccc3)C(=O)N2[C@H]1C(=O)O` [Pen. G, benzylpenicillin], for which the “reader units expressed in %” value was 96% in test [1] (1.25 ppb Pen. G present in sample, milk); 69% in test [1] (2 ppb Pen. G present in sample, milk); 65% in test [1] (3 ppb Pen. G present in sample, milk); 51% in test [1] (4 ppb Pen. G present in sample, milk); 47% in test [1] (5 ppb Pen. G present in sample, milk); 32% in test [1] (10 ppb Pen. G present in sample, milk). The “lowest detectable benzylpenicillin residue (test sensitivity)” value in test [1] (milk, total incubation time 8 minutes (test time not exceeding about 12 minutes)) is 5 ppb.
In the case of `CC(=O)OCC1=C(C(=O)O)N2C(=O)[C@@H](NC(=O)CSc3ccncc3)[C@H]2SC1` [Cephapirin], the sensitivity ppb in test [1] worked out at 5 ppb.
On to `CC1(C)S[C@@H]2[C@H](NC(=O)[C@H](N)c3ccccc3)C(=O)N2[C@H]1C(=O)O` [Ampicillin], for which the sensitivity ppb in test [1] was 10 ppb.
Turning to gentamycin [gentamycine], the “reader units expressed in %” value in test [2] (2.5 ppb gentamycine present in sample) is 55%; in test [2] (5 ppb gentamycine present in sample), 39%; in test [2] (10 ppb gentamycine present in sample), 31%; in test [2] (20 ppb gentamycine present in sample) it was 23%; in test [2] (30 ppb gentamycine present in sample), 20%; in test [2] (36 ppb gentamycine present in sample), 18%. The “detectable gentamycin residue, can be lowered to (referred to Table III)” value in test [2] (milk, all incubations at 20° C.) is listed as 2.5 ppb. In addition, in test [2] (milk, total incubation time 8 minutes, all incubations at 20° C.), the “lowest detectable gentamycin residue” value came to 30 ppb.
`CC1(C)S[C@@H]2[C@H](NC(=O)[C@H](N)c3ccc(O)cc3)C(=O)N2[C@H]1C(=O)O` [Amoxicillin] had a sensitivity ppb in test [1] of 5 ppb.
Still for that read-out and setting: the value for `CO/N=C(\C(=O)N[C@@H]1C(=O)N2C(C(=O)O)=C(CSC(=O)c3ccco3)CS[C@H]12)c1csc(N)n1` [Ceftiofur] was 5 ppb.
